Source: US20140259191A1, “FISH ANESTHETIC AND METHOD” (AQUA-MOR TECHNOLOGIES LTD., priority 2011, published 2014)

How the values were obtained:
[1] = test system: Koi fish; assay: Anesthesia of Koi fish by linalool added to tank water; type: in vivo
Protocol: A one year old koi fish of body length 11 cm and which appeared to be healthy was placed in a 4 liter tank containing water at 25° C. and in which the water was circulated by means of aeration. A liquid a mixture containing 1 wt. % synthetic linalool (1 wt. % linalool, 5 wt. % 14R, 2 wt. % AF80 and 92 wt. % water) was added to the tank and manually mixed with the water so that the concentration of linalool in the water was 50 ppm. This was regarding as the starting time of the experiment; thereafter, observations were made regularly to determine the behavior of the fish in water. This continued until no response to external stimulation and complete loss of equilibrium were observed, at which point the fish was transferred to a recovery tank containing fresh water. The fish was placed near the air pump, and the time until the fish again swam and responded normally to external stimulation was recorded.
(§1) The experiment of Example 1 was repeated, using a one year old Koi fish of 12 cm body length, and adding the linalool formulation to a linalool concentration in the water of 75 ppm instead of 50 ppm. After 2 minutes of exposure to linalool the fish appeared to be in slight stress. […] At 20 minutes the fish was removed to a recovery tank with clean water. Thereafter it recovered slowly and after 40 minutes was swimming around in the tank and appeared to have resumed normal activity.
as §1, with “12.5” for “12”, “100” for “75”, “ppm.” for “ppm. After 2 minutes of exposure to linalool the fish appeared to be in slight stress.”, “6” for “20”, “30” for “40”
To a four liter tank containing three one-year old Koi fish of respective weights 30 g, 29 g and 31 g and respective body lengths 11 cm, 12 cm and 12.5 cm in water at 21° C. and pH 7 was added a formulation containing 1% linalool. The formulation was added to the water to a linalool concentration of 50 ppm in the water. The fish became relaxed 6 minutes after addition of linalool and after 9 minutes were completely anesthetized. At 9 5 minutes the fish were removed to a recovery tank with fresh water. After 40 minutes in the recovery tank the fish resumed normal behavior.

[2] = test system: carp; assay: Carp exposed to 75 ppm linalool for varying amounts of time, recovery observed; type: in vivo, Cyprinus carpio; parameters: key to recovery state at 13 minutes after introduction of linalool / recovery state at 15 minutes after introduction of linalool / recovery state at 16 minutes after introduction of linalool / recovery state at 17 minutes after introduction of linalool / recovery state at 19 minutes after introduction of linalool / recovery state at 20 minutes after introduction of linalool / recovery state at 21 minutes after introduction of linalool / recovery state at 22 minutes after introduction of linalool / recovery state at 24 minutes after introduction of linalool / recovery state at 25 minutes after introduction of linalool / recovery state at 27 minutes after introduction of linalool / recovery state at 28 minutes after introduction of linalool / recovery state at 29 minutes after introduction of linalool / recovery state at 38 minutes after introduction of linalool / recovery state at 39 minutes after introduction of linalool / recovery state at 40 minutes after introduction of linalool / recovery state at 70 minutes after introduction of linalool / recovery state at 77 minutes after introduction of linalool / recovery state at 78 minutes after introduction of linalool: RT = removed to recovery tank; PR = partial recovery; TR = total recovery
Protocol: 16 healthy carp (Cyprinus carpio), average weight of 150 g, maintained in 6 liter tanks, were each exposed to 75 ppm of linalool (using the same formulation described in Example 1, 45 g of which were mixed into each treatment tank) for varying amounts of time. Pairs of fish were introduced to linalool simultaneously and then removed to recovery tanks at various times: 3, 8, 12, 15, 20, 30, 40 and 50 minutes after introduction, and each fish's recovery was observed over the course of two consecutive days. Complete anesthesia was achieved after 5 minutes of exposure.

[3] = test system: common carp; assay: Five-hour sedation of common carp, linalool versus 2-phenoxyethanol; type: in vivo; details: linalool 40 ppm; for Number of fish exhibiting loss of upright position: 26° C.
Protocol: 2-Phenoxyethanol (2-PE) is used to sedate fish in vaccinations procedures for relatively long periods of time (3 hours). 35 common carp were placed in each of two 60-liter tanks containing water at 26° C. Into one tank was added linalool (in a formulation as described in Example 28) to a concentration of 40 ppm; into the other tank was added 2-PE to a concentration of 200 ppm. Sedation of fish was determined by observation of loss of upright position, operculum movement and response to stimulus (handling). Total exposure time was five hours, at the end of which the fish were transferred 60-liter recovery tanks containing untreated water.

[4] = Example 1: Koi 11 cm, 50 ppm linalool in water, 25° C.
[5] = Example 2: Koi 12 cm, 75 ppm linalool in water
[6] = Example 3: Koi 12.5 cm, 100 ppm linalool in water
[7] = Example 18: three Koi 29-31 g, 50 ppm linalool, 21° C., pH 7
[8] = carp 150 g, fish still exposed (nos. 3-16)
[9] = carp, removed to recovery tank at 8 minutes (fish nos. 3, 4)
[10] = carp, removed to recovery tank at 12 minutes (fish nos. 5, 6)
[11] = carp, removed to recovery tank at 15 minutes (fish nos. 7, 8)
[12] = carp, removed to recovery tank at 20 minutes (fish nos. 9, 10)
[13] = carp, removed to recovery tank at 30 minutes (fish nos. 11, 12)
[14] = carp, removed to recovery tank at 40 minutes (fish nos. 13, 14)

Structure (SMILES): C=CC(C)(O)CCC=C(C)C (stereo not drawn) [linalool]
- time of exposure until complete loss of equilibrium [1, 4]: 6.5 min
- time of exposure until fish swam on its back [1, 4]: 8 min
- time of exposure until no response to external stimulation [1, 4]: 9 min
- time of exposure until partial loss of equilibrium [1, 4]: 5.5 min
- time of exposure until slight stress [1, 4]: 2.5 min
- time in recovery tank until normal activity resumed ([1]; Example 1: Koi 11 cm, 50 ppm linalool, removed to clean water at 9.5 minutes): 45 min
- time of exposure until complete loss of equilibrium [1, 5]: 7 min
- time of exposure until no response to external stimulation [1, 5]: 9 min
- time of exposure until slight stress [1, 5]: 2 min
- time in recovery tank until normal activity resumed ([1]; Example 2: Koi 12 cm, 75 ppm linalool, removed to clean water at 20 minutes): 40 min
- time of exposure until complete loss of equilibrium [1, 6]: 4 min
- time of exposure until no response to external stimulation [1, 6]: 5.5 min
- time of exposure until partial loss of equilibrium [1, 6]: 2.5 min
- time in recovery tank until normal activity resumed ([1]; Example 3: Koi 12.5 cm, 100 ppm linalool, removed to clean water at 6 minutes): 30 min
- time in recovery tank until normal behavior resumed ([1]; Example 18: Koi, 50 ppm linalool, 21° C., removed at 9 5 minutes): 40 min
- time after addition of linalool until fish became relaxed [1, 7]: 6 min
- time until fish completely anesthetized [1, 7]: 9 min
- time of exposure until complete anesthesia ([2]; Example 8: carp 150 g): 5 min
- observed state at 5 minutes after introduction of linalool ([2]; carp 150 g): Loss of reflex reactivity (stage 5 anesthesia)
- observed state at 10 minutes after introduction of linalool ([2]; carp 150 g): opercular movements slow and irregular
- observed state at 1 minute after introduction of linalool ([2]; carp 150 g, all fish): Total loss of equilibrium
- observed state at 3 minutes after introduction of linalool [2, 8]: Total loss of reactivity to all but strong external stimuli
- observed state at 4 minutes after introduction of linalool [2, 8]: slow but regular opercular rate
- recovery state at 13 minutes after introduction of linalool ([2]; carp, removed to recovery tank at 3 minutes (fish nos. 1, 2)): TR
- recovery state at 15 minutes after introduction of linalool [2, 9]: PR
- recovery state at 16 minutes after introduction of linalool [2, 9]: TR and PR
- recovery state at 17 minutes after introduction of linalool [2, 9]: TR
- recovery state at 19 minutes after introduction of linalool [2, 10]: PR
- recovery state at 20 minutes after introduction of linalool [2, 10]: PR
- recovery state at 21 minutes after introduction of linalool [2, 10]: TR
- recovery state at 22 minutes after introduction of linalool [2, 10]: TR
- recovery state at 24 minutes after introduction of linalool [2, 11]: PR
- recovery state at 25 minutes after introduction of linalool [2, 11]: TR
- recovery state at 28 minutes after introduction of linalool [2, 11]: PR
- recovery state at 29 minutes after introduction of linalool [2, 11]: TR
- recovery state at 27 minutes after introduction of linalool [2, 12]: PR
- recovery state at 28 minutes after introduction of linalool [2, 12]: TR
- recovery state at 38 minutes after introduction of linalool [2, 13]: PR
- recovery state at 39 minutes after introduction of linalool [2, 13]: TR and PR
- recovery state at 40 minutes after introduction of linalool [2, 13]: TR
- recovery state at 70 minutes after introduction of linalool [2, 14]: TR
- recovery state at 77 minutes after introduction of linalool [2, 14]: PR
- recovery state at 78 minutes after introduction of linalool [2, 14]: TR
- recovery of fish nos. 15 and 16 ([2]; carp, removed to recovery tank at 50 minutes): Fish nos. 15 and 16 never recovered.
- Number of fish exhibiting loss of upright position ([3]; 35 common carp per tank, 2-PE 200 ppm, time 10:30 (start), aeration): 0
- Number of fish exhibiting loss of upright position ([3]; 35 common carp per tank, 2-PE 200 ppm, time 11:00 (start 10:30), no aeration): 2
- Number of fish exhibiting loss of upright position ([3]; 35 common carp per tank, 2-PE 200 ppm, time 11:40 (start 10:30), no aeration): 9
- Number of fish exhibiting loss of upright position ([3]; 35 common carp per tank, 2-PE 200 ppm, time 12:35 (start 10:30), no aeration): 16
- Number of fish exhibiting loss of upright position ([3]; 35 common carp per tank, 2-PE 200 ppm, time 13:35 (start 10:30), no aeration): 17
- Number of fish exhibiting loss of upright position ([3]; 35 common carp per tank, 2-PE 200 ppm, time 14:30 (start 10:30), aeration): 20
- Number of fish exhibiting loss of upright position ([3]; 35 common carp per tank, 2-PE 200 ppm, time 15:30 (start 10:30), aeration): 16
- survival at transfer to recovery tank ([3]; 35 common carp per tank, 2-PE 200 ppm, after five hours exposure): All alive
- reflex response over the 5 hours of exposure ([3]; common carp, 2-PE 200 ppm): reduced from the beginning of the trial and remained at the same level of reflex throughout the 5 hours of exposure
- sedative effect between 3 and 5 hours of exposure ([3]; common carp, 2-PE 200 ppm): maintained
- recovery after placement in a recovery tank ([3]; common carp, 2-PE 200 ppm, after five hours exposure): recovered quickly in few minutes and did not show signs of stress
- response to external stimulation during the first 3 hours ([3]; common carp, 2-PE 200 ppm, sedation levels enabled handling): did not respond to external stimulation
- loss of reflex reactivity ([3]; common carp, in contrast to 2-PE): did not completely lose reflex reactivity
